Legend:
[1] = target: T1, ADP-ribosyl cyclase/cyclic ADP-ribose hydrolase [1-303] (Blood fluke, UniProt Q32TF5); assay: NAD glycohydrolase assay; settings: pH 7.4; 37 °C
T1 construct: 1-303
T1 sequence (Q32TF5 whole entry): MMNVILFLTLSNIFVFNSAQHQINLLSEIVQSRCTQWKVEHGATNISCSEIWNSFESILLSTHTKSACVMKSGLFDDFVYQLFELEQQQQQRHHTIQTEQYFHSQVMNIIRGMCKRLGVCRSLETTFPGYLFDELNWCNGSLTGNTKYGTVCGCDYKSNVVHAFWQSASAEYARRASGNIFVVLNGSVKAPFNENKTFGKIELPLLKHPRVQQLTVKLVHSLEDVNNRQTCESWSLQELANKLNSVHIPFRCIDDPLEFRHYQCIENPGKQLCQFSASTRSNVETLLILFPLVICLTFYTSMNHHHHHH
Protocol: (§1) SmNACE activity and inhibition were measured with a sensitive, continuous, fluorometric assay platform that used 1,N6-ethenonicotinamide adenine dinucleotide (εNAD; Sigma-Aldrich, Inc.) as a substrate. This assay consists of measuring the appearance of the fluorescent εADP-ribose reaction product with excitation (λexc) and emission (λem) wavelengths of 310 and 410 nm, respectively, at 37 °C using the thermostatically controlled Spectramax Gemini XPS fluorescence plate reader (100 uL reaction volume; Molecular Devices, LLC) or the thermostatically controlled RF-5301PC spectrofluorophotometer (1 mL reaction volume; Shimadzu Scientific Instruments). The biochemical assay with 100 ug/mL of recombinant SmNACE was carried out in a 10 mM potassium phosphate buffer, at pH 7.4, containing 0.05% (w/v) emulphogen.

[2] = target: T2, ADP-ribosyl cyclase/cyclic ADP-ribose hydrolase (Blood fluke, UniProt Q32TF5); assay: NAD glycohydrolase assay; settings: pH 7.4; 37 °C
T2 sequence (Q32TF5 whole entry): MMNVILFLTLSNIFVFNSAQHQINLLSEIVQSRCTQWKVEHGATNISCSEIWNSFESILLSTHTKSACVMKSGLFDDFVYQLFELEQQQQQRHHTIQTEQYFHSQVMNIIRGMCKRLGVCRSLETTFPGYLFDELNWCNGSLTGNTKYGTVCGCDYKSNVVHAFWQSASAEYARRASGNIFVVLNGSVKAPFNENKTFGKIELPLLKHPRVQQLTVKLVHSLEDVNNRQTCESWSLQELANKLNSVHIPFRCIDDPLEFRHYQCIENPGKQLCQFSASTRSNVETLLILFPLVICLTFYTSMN
Protocol: as §1

Row | SMILES | IC50 [1] [nM] | IC50 [2] [nM]
1 | Cc1occc1C(=O)N/N=C/c1ccc(O)c(O)c1 [SmNACE inhibitor, 1] | 88000 | 69000
2 | Cc1occc1C(=O)N/N=C/c1cc(Cl)ccc1O [SmNACE inhibitor, 2] | 33 | 126
3 | O=C(Nc1nc(=O)c2ccccc2s1)c1ccco1 [SmNACE inhibitor, 3] | 2200 | > 20000
4 | Cc1ccc2c(c1)C[N]1NC(C3CCOC3C)[O][Zn+]1[O]2 (stereo not drawn) [Zn(II) complex of 2] | 330 | > 200000

— BindingDB's records for doi:10.1021/acschembio.7b00186 (University of Strasburg, 2017)
